Assays:
[1] = system: NCI-H292 lung cancer cells; test: FDA drug screening, complete media vs cholesterol-free media without statin (TABLE 1); format: cell-based, human; settings: for Difference: about 0 neutral
[2] = system: NCI-H292 lung cancer cells; test: FDA drug screening, complete media vs cholesterol-free media with simvastatin (TABLE 2); format: cell-based, human; settings: for Cholesterol-free media + simvastatin (0.04 μM) / Complete Media: NCI-H292 cells; for Difference: >0 enhanced anti-cancer activity, about 0 neutral, <0 antagonist
[3] = Complete minus Cholesterol-free, >0 enhanced anti-cancer activity, <0 antagonist
[4] = NCI-H292 cells, cholesterol-free media without statin
[5] = FDA library drug in cholesterol-free media with simvastatin 0.04 μM
[6] = FDA library drug in complete media
[7] = complete media vs cholesterol-free media + simvastatin (0.04 μM)
[8] = Complete minus Cholesterol-free, greater than 0 enhanced anti-cancer activity, below 0 antagonists
[9] = NCI-H292 cells in cholesterol-free media without statin
[10] = NCI-H292 cells in complete media
[11] = FDA drug library screen, cholesterol-free media with simvastatin 0.04 μM
[12] = FDA drug library screen, complete media
[13] = complete media minus cholesterol-free media + simvastatin
[14] = NCI-H292 cells, cholesterol-free media without statin, FDA drug library screen
[15] = NCI-H292 cells, complete media, FDA drug library screen
[16] = cholesterol-free media with simvastatin 0.04 μM, FDA drug library screen (TABLE 2)
[17] = complete media, FDA drug library screen (TABLE 2)
[18] = complete media minus cholesterol-free media + simvastatin (0.04 μM)
[19] = complete vs cholesterol-free media, greater than 0 enhanced anti-cancer activity, below 0 antagonists

Structure (SMILES) | Difference [1, 3] | Cholesterol-free media + simvastatin (0.04 μM) [2, 5] | Complete Media [2, 6] | Difference [2, 7] | Difference [1, 8] | Cholesterol-free [1, 9] | Complete [1, 10] | Cholesterol-free media + simvastatin (0.04 μM) [2, 11] | Complete Media [2, 12] | also measured
COc1cc2c(cc1OC)[C@@H]1Cc3ccc(OC)c(OC)c3CN1CC2 [Rotundine] | −0.21 | 1.094 | 0.8277 | −0.27 |  |  |  |  |  | Cholesterol-free [1, 4]: 1.07; Complete ([1]; NCI-H292 cells, complete media): 0.8588
COc1ccc(-c2cc(C(F)F)nn2-c2ccc(S(N)(=O)=O)cc2)cc1F [Deracoxib] |  |  |  |  | −0.50 | 1.682 | 1.181 | 1.651 | 1.821 | Difference [2, 13]: 0.17
Cc1cc(/C=C/C#N)cc(C)c1Nc1ccnc(Nc2ccc(C#N)cc2)n1 [Rilpivirine] | 0.06 | 1.859 | 1.359 | −0.50 |  |  |  |  |  | Cholesterol-free [1, 14]: 0.8235; Complete [1, 15]: 0.8865
O=C(NC1CCNCC1)[C@@H]1CC[C@@H]2CN1C(=O)N2OS(=O)(=O)O [Relebactam] |  |  |  |  | −0.59 | 1.438 | 0.845 |  |  | Cholesterol-free media + simvastatin (0.04 μM) ([2]; cholesterol-free media with simvastatin 0.04 μM, cell growth value in FDA drug screen): 0.885; Complete Media ([2]; complete media, cell growth value in FDA drug screen): 0.9451; Difference [2, 13]: 0.06
c1cnc2cc3c(cc2n1)[C@@H]1CNC[C@H]3C1 [Varenicline] |  | 1.359 | 1.033 | −0.33 | −0.54 | 1.353 | 0.8146 |  |  | 
Cc1cc(C#N)cc(C)c1Oc1nc(Nc2ccc(C#N)cc2)nc(N)c1Br [Etravirine] |  |  |  |  | −0.49 | 1.424 | 0.9362 |  |  | Cholesterol-free media + simvastatin (0.04 μM) [2, 16]: 0.8346; Complete Media [2, 17]: 0.8071; Difference [2, 18]: −0.03
CCCNS(=O)(=O)Nc1ncnc(OCCOc2ncc(Br)cn2)c1-c1ccc(Br)cc1 [Macitentan] |  |  |  | −0.14 | −0.48 | 1.592 | 1.113 | 1.697 | 1.56 | 
Cn1c(=O)c2[nH]cnc2n(C)c1=O [Theophylline] |  |  |  | −0.16 |  |  |  | 1.182 | 1.026 | Cholesterol-free [1, 4]: 1.592; Complete ([1]; NCI-H292 cells, complete media): 1.176; Difference [1, 19]: −0.42
COc1cc(Nc2ncc(F)c(Nc3ccc4c(n3)N(COP(=O)(O)O)C(=O)C(C)(C)O4)n2)cc(OC)c1OC [Fostamatinib (disodium hexahydrate)] | 0.00 |  |  | −0.10 |  |  |  | 0.9752 | 0.8745 | Cholesterol-free [1, 14]: 0.5454; Complete [1, 15]: 0.5466
COc1ccccc1O [Guaiacol] | −0.02 | 2.295 | 1.473 | −0.82 |  |  |  |  |  | Cholesterol-free [1, 14]: 1.281; Complete [1, 15]: 1.265
CC(=O)N1CCN(c2ccc(OC[C@H]3CO[C@](Cn4ccnc4)(c4ccc(Cl)cc4Cl)O3)cc2)CC1 [(+)-Ketoconazole] | −0.24 |  |  |  |  |  |  | 0.4743 | 0.9511 | Cholesterol-free [1, 4]: 1.237; Complete ([1]; NCI-H292 cells, complete media): 0.9934; Difference [2, 13]: 0.48
O=C(O)[C@H]1/C(=C/CO)O[C@@H]2CC(=O)N21 [Clavulanate (lithium)] | 0.07 | 1.974 | 1.387 | −0.59 |  |  |  |  |  | Cholesterol-free [1, 14]: 1.545; Complete [1, 15]: 1.617
COc1ccccc1Oc1c(NS(=O)(=O)c2ccc(C(C)(C)C)cc2)nc(-c2ncccn2)nc1OCCO [Bosentan (hydrate)] |  |  |  |  |  |  |  |  |  | Difference ([1]; Complete minus Cholesterol-free, greater than 0 enhanced anti-cancer activity, below 0 antagonist): −0.13; Cholesterol-free ([1]; NCI-H292 cells, FDA drug library screen, cholesterol-free media without statin): 1.31; Complete ([1]; NCI-H292 cells, FDA drug library screen, complete media): 1.181; Cholesterol-free media + simvastatin (0.04 μM) [2, 16]: 1.256; Complete Media [2, 17]: 1.269; Difference [2, 18]: 0.01
N#Cc1ccc([C@H]2CCc3cncn32)c(F)c1 [Osilodrostat] |  |  |  | −0.11 | −0.71 | 1.647 | 0.935 | 1.26 |  | 
Nc1ccc(O)c(C(=O)O)c1 [5-Aminosalicylic Acid] |  |  |  | −0.21 |  |  |  |  |  | Cholesterol-free [1, 4]: 1.21; Complete ([1]; NCI-H292 cells, complete media): 0.8775; Difference [1, 19]: −0.33; Cholesterol-free media + simvastatin (0.04 μM) ([2]; drug in cholesterol-free media with simvastatin 0.04 μM): 1.224; Complete Media ([2]; drug in complete media): 1.016
